# Measured values as given in ChEMBL document CHEMBL1681651, “A broad spectrum anticancer nucleoside with selective toxicity against human colon cells in vitro” (2011).
# What was measured:
# Assay type in all cases: functional
# DU-145 = experiment: Growth inhibition of human DU145 cells assessed as cell growth at 1 uM after 48 hrs by SRB assay; settings: DU-145, 48 h, read-out: Activity
# [1] = Growth inhibition of human […] cells assessed as cell growth at 10 uM after 48 hrs by SRB assay; settings: read-out: Activity
# NCI-H226 [2] = experiment: Growth inhibition of human NCI-H226 cells assessed as cell growth at 10 uM after 48 hrs by SRB assay; settings: NCI-H226, 48 h, read-out: Activity
# NCI-H460 [3] = experiment: Growth inhibition of human NCI-H460 cells assessed as cell growth at 10 uM after 48 hrs by SRB assay; settings: NCI-H460, 48 h, read-out: Activity
# NCI-H23 = experiment: Growth inhibition of human NCI-H23 cells after 48 hrs by […] growth inhibition assay; settings: NCI-H23, 48 h
# HCT-116 = experiment: Growth inhibition of human HCT116 cells after 48 hrs by […] growth inhibition assay; settings: HCT-116, 48 h
# HT-29 = experiment: Growth inhibition of human HT-29 cells after 48 hrs by […] growth inhibition assay; settings: HT-29, 48 h
# Malme-3M = experiment: Growth inhibition of human MALME-3M cells after 48 hrs by […] growth inhibition assay
# HOP-92 [4] = experiment: Growth inhibition of human HOP92 cells assessed as cell growth at 0.1 uM after 48 hrs by SRB assay; settings: HOP-92, 48 h, read-out: Activity
# SF-295 = experiment: Growth inhibition of human SF295 cells assessed as cell growth at 0.1 uM after 48 hrs by SRB assay; settings: SF-295, 48 h, read-out: Activity
# SNB-75 [5] = experiment: Growth inhibition of human SNB75 cells assessed as cell growth at 0.1 uM after 48 hrs by SRB assay; settings: SNB-75, 48 h, read-out: Activity
# CAKI-1 = experiment: Growth inhibition of human Caki1 cells assessed as cell growth at 0.1 uM after 48 hrs by SRB assay; settings: CAKI-1, 48 h, read-out: Activity
# RXF 393 = experiment: Growth inhibition of human RXF393 cells assessed as cell growth at 0.1 uM after 48 hrs by SRB assay; settings: RXF 393, 48 h, read-out: Activity
# TK-10 = experiment: Growth inhibition of human TK10 cells assessed as cell growth at 0.1 uM after 48 hrs by SRB assay; settings: TK-10, 48 h, read-out: Activity
# MCF7 = experiment: Growth inhibition of human MCF7 cells assessed as cell growth at 0.1 uM after 48 hrs by SRB assay; settings: MCF7, 48 h, read-out: Activity
# U-251 = experiment: Growth inhibition of human U251 cells assessed as cell growth at 10 uM after 48 hrs by SRB assay; settings: U-251, 48 h, read-out: Activity
# SK-OV-3 [6] = experiment: Growth inhibition of human SKOV3 cells assessed as cell growth at 10 uM after 48 hrs by SRB assay; settings: SK-OV-3, 48 h, read-out: Activity
# A498 [7] = experiment: Growth inhibition of human A498 cells assessed as cell growth at 10 uM after 48 hrs by SRB assay; settings: A498, 48 h, read-out: Activity
# MDA-MB-231 [8] = experiment: Growth inhibition of human MDA-MB-231 cells assessed as cell growth at 10 uM after 48 hrs by SRB assay; settings: MDA-MB-231, 48 h, read-out: Activity
# BT-549 = experiment: Growth inhibition of human BT549 cells assessed as cell growth at 10 uM after 48 hrs by SRB assay; settings: BT-549, 48 h, read-out: Activity
# CCRF-CEM = experiment: Growth inhibition of human CCRF-CEM cells assessed as cell growth at 100 uM after 48 hrs by SRB assay; settings: read-out: Activity
# [9] = Growth inhibition of human […] cells assessed as cell growth at 100 uM after 48 hrs by SRB assay; settings: read-out: Activity
# EKVX = experiment: Growth inhibition of human EKVX cells assessed as cell growth at 100 uM after 48 hrs by SRB assay; settings: read-out: Activity
# SNB-75 [10] = experiment: Growth inhibition of human SNB75 cells assessed as cell growth at 100 uM after 48 hrs by SRB assay; settings: SNB-75, 48 h, read-out: Activity
# OVCAR-5 = experiment: Growth inhibition of human OVCAR5 cells assessed as cell growth at 100 uM after 48 hrs by SRB assay; settings: OVCAR-5, 48 h, read-out: Activity
# A498 [11] = experiment: Growth inhibition of human A498 cells assessed as cell growth at 100 uM after 48 hrs by SRB assay; settings: A498, 48 h, read-out: Activity
# MDA-MB-231 [12] = experiment: Growth inhibition of human MDA-MB-231 cells assessed as cell growth at 100 uM after 48 hrs by SRB assay; settings: MDA-MB-231, 48 h, read-out: Activity
# HOP-92 [13] = experiment: Growth inhibition of human HOP92 cells assessed as cell growth at 1 mM after 48 hrs by SRB assay; settings: HOP-92, 48 h, read-out: Activity
# HCT-15 = experiment: Growth inhibition of human HCT15 cells assessed as cell growth at 1 mM after 48 hrs by SRB assay; settings: HCT-15, 48 h, read-out: Activity
# SK-OV-3 [14] = experiment: Growth inhibition of human SKOV3 cells assessed as cell growth at 1 mM after 48 hrs by SRB assay; settings: SK-OV-3, 48 h, read-out: Activity
# NCI/ADR-RES = experiment: Growth inhibition of human NCI/ADR-RES cells after 48 hrs by SRB assay
# NCI-H226 [15] = experiment: Growth inhibition of human NCI-H226 cells assessed as cell growth at 1 uM after 48 hrs by SRB assay; settings: NCI-H226, 48 h, read-out: Activity
# NCI-H460 [16] = experiment: Growth inhibition of human NCI-H460 cells assessed as cell growth at 1 uM after 48 hrs by SRB assay; settings: NCI-H460, 48 h, read-out: Activity
# SK-MEL-2 = experiment: Growth inhibition of human SK-MEL-2 cells assessed as cell growth at 1 uM after 48 hrs by SRB assay; settings: SK-MEL-2, 48 h, read-out: Activity
# UACC-62 = experiment: Growth inhibition of human UACC62 cells assessed as cell growth at 1 uM after 48 hrs by SRB assay; settings: UACC-62, 48 h, read-out: Activity
# [17] = read-out: LC50 (the source's name)
# [18] = read-out: pLC50 (the source's name) (converted)
smiles,measurement,setting,value
CNC(=O)NC[C@H]1O[C@@H](n2cnc3c(NC(=O)Nc4ccccc4)ncnc32)[C@H](O[Si](C)(C)C(C)(C)C)[C@@H]1CC(=O)N(C)OC,growth at 1 µM,DU-145,112%
same,growth at 10 µM,[1],69%
same,growth at 10 µM,NCI-H226 [2],99%
same,growth at 10 µM,NCI-H460 [3],90%
same,GI50,NCI-H23; read-out: GI50,57.2 µM
same,CC50,NCI-H23; [17],> 100 µM
same,TGI,NCI-H23; read-out: TGI,> 100 µM
same,GI50,NCI-H23; read-out: pGI50 (converted),57.5 µM
same,CC50,NCI-H23; [18],> 100 µM
same,TGI,NCI-H23; read-out: pTGI (converted),> 100 µM
same,GI50,HCT-116; read-out: GI50,4.2 µM
same,CC50,HCT-116; [17],> 100 µM
same,TGI,HCT-116; read-out: TGI,> 100 µM
same,GI50,HCT-116; read-out: pGI50 (converted),4.17 µM
same,CC50,HCT-116; [18],> 100 µM
same,TGI,HCT-116; read-out: pTGI (converted),> 100 µM
same,GI50,HT-29; read-out: GI50,5.37 µM
same,CC50,HT-29; [17],> 100 µM
same,TGI,HT-29; read-out: TGI,> 100 µM
same,GI50,HT-29; read-out: pGI50 (converted),5.37 µM
same,CC50,HT-29; [18],> 100 µM
same,TGI,HT-29; read-out: pTGI (converted),> 100 µM
same,GI50,Malme-3M; read-out: GI50,11.4 µM
same,LC50 (concentration killing 50% of cells),Malme-3M; read-out: LC50,> 100 µM
same,TGI,Malme-3M; read-out: TGI,> 100 µM
same,GI50,Malme-3M; read-out: pGI50 (converted),11.5 µM
same,LC50 (concentration killing 50% of cells),Malme-3M; read-out: pLC50 (converted),> 100 µM
same,TGI,Malme-3M; read-out: pTGI (converted),> 100 µM
same,growth at 0.1 µM,HOP-92 [4],80%
same,growth at 0.1 µM,SF-295,93%
same,growth at 0.1 µM,SNB-75 [5],94%
same,growth at 0.1 µM,CAKI-1,85%
same,growth at 0.1 µM,RXF 393,103%
same,growth at 0.1 µM,TK-10,99%
same,growth at 0.1 µM,MCF7,91%
same,growth at 10 µM,U-251,90%
same,growth at 10 µM,SK-OV-3 [6],95%
same,growth at 10 µM,A498 [7],87%
same,growth at 10 µM,MDA-MB-231 [8],94%
same,growth at 10 µM,BT-549,96%
same,growth at 100 µM,CCRF-CEM,39%
same,growth at 100 µM,[9],-25%
same,growth at 100 µM,EKVX,60%
same,growth at 100 µM,SNB-75 [10],54%
same,growth at 100 µM,OVCAR-5,71%
same,growth at 100 µM,A498 [11],24%
same,growth at 100 µM,MDA-MB-231 [12],55%
same,growth at 1000 µM,HOP-92 [13],-43%
same,growth at 1000 µM,HCT-15,37%
same,growth at 1000 µM,SK-OV-3 [14],38%
same,GI50,NCI/ADR-RES; read-out: GI50,> 100 µM
same,CC50,NCI/ADR-RES; [17],> 100 µM
same,TGI,NCI/ADR-RES; read-out: TGI,> 100 µM
same,GI50,NCI/ADR-RES; read-out: pGI50 (converted),> 100 µM
same,CC50,NCI/ADR-RES; [18],> 100 µM
same,TGI,NCI/ADR-RES; read-out: pTGI (converted),> 100 µM
same,growth at 1 µM,NCI-H226 [15],111%
same,growth at 1 µM,NCI-H460 [16],93%
same,growth at 1 µM,SK-MEL-2,83%
same,growth at 1 µM,UACC-62,107%
CNC(=O)OC[C@H]1O[C@@H](n2cnc3c(NC(=O)Nc4ccccc4)ncnc32)[C@H](O[Si](C)(C)C(C)(C)C)[C@@H]1O[Si](C)(C)C(C)(C)C,growth at 10 µM,[1],88.1%
same,growth at 10 µM,NCI-H226 [2],93.2%
same,growth at 10 µM,NCI-H460 [3],103%
same,growth at 10 µM,U-251,86%
same,growth at 10 µM,SK-OV-3 [6],106%
same,growth at 10 µM,A498 [7],98.4%
same,growth at 10 µM,MDA-MB-231 [8],110%
